Reference: US20230028441A1, “NOVEL HETEROARYL-TRIAZOLE COMPOUNDS AS PESTICIDES” (Bayer Aktiengesellschaft, priority 2019, published 2023)

What was measured:
Format in all cases: in vivo
[1] = system: larvae of the banded cucumber beetle (Diabrotica balteata); assay: Diabrotica balteata spray test; conditions: 168 h, after 7 days, wheat seeds, read-out: efficacy (seedlings grown up); for pest or weed control at 32 µg/disc, 100 g/ha: 100 g/ha (=32 μg/well)
Summary of the method: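 Germinated wheat seedlings (5 per well, agar plates) sprayed with compound in acetone/DMF diluted in water with 1000 ppm emulsifier, then infested with 10-20 larvae per unit. Efficacy scored after 7 days as % seedling growth relative to untreated, uninfested control (100% = normal growth, 0% = none).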

[2] = system: green peach aphid (Myzus persicae); assay: Myzus persicae spray test; conditions: foliar, 120 h, after 5 days, Chinese cabbage leaf disks
Method: Solvent: 78.0 parts by weight acetone • 1.5 parts by weight dimethylformamide
(§1) Emulsifier: alkylarylpolyglycol ether
(§2) To produce a suitable preparation of active compound, 1 part by weight of active compound is mixed with the stated amount of solvents and is diluted with water, containing an emulsifier concentration of 1000 ppm, to the desired concentration. Further test concentrations are prepared by dilution with emulsifier containing water.
Chinese cabbage (Brassica pekinensis) leaf disks infected with all instars of the green peach aphid (Myzus persicae), are sprayed with a preparation of the active ingredient of the desired concentration.
After 5 days mortality in % is determined. 100% means all aphids have been killed and 0% means none of the aphids have been killed.

[3] = system: larvae of the southern green stink bug (Nezara viridula); assay: Nezara viridula spray test; conditions: in Hordeum vulgare, 96 h
Summary of the method: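 Barley plants infested with Nezara viridula larvae were sprayed with compound in acetone/dimethylformamide, diluted in water containing 1000 ppm alkylarylpolyglycol ether emulsifier. Mortality (%) was scored after 4 days; 100% means all stink bugs killed.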

[4] = system: brown planthopper (Nilaparvata lugens); assay: Nilaparvata lugens spray test; conditions: in Oryza sativa, 96 h
Method: Solvent: 78.0 parts by weight of acetone • • 1.5 parts by weight of dimethylformamide
as §1, §2
Rice plants (Oryza sativa) are sprayed with a preparation of the active ingredient of the desired concentration and the plants are infested with the brown planthopper (Nilaparvata lugens).
After 4 days mortality in % is determined. 100% means all planthoppers have been killed and 0% means none of the planthoppers have been killed.

[5] = system: fall armyworm larvae (Spodoptera frugiperda); assay: Spodoptera frugiperda spray test (maize leaf sections); conditions: 168 h
Summary of the method: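 Maize leaf sections were sprayed with compound formulated in acetone/DMF and diluted in water containing 1000 ppm emulsifier. Once dry, sections were infested with fall armyworm larvae. Mortality (%) was scored after 7 days.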

[6] = system: cattle tick larvae (Rhipicephalus microplus), strain Parkhurst, resistant against synthetic pyrethroids; assay: Rhipicephalus (Boophilus) microplus in-vitro contact test, larval cattle tick; conditions: 5 μg/cm^2 (=500 g/ha), after 48 hours, read-out: efficacy (larvae dead or moribund)
Summary of the method: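 Acetone solutions of compound were coated on glass tube walls (900 ppm giving 5 μg/cm^2) and dried. 20–50 pyrethroid-resistant Parkhurst larvae were held per tube at 27° C and 85% relative humidity; after 48 h negative geotaxis scored efficacy as percent larvae dead or moribund.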

[7] = system: adult cat fleas (Ctenocephalides felis); assay: Ctenocephalides felis in-vitro contact test, adult cat flea; conditions: 5 μg/cm^2 (=500 g/ha), after 48 hours, read-out: efficacy (fleas dead or moribund)
Method: 9 mg compound is solved in 1 mL acetone and diluted with acetone to the desired concentration. 250 μL of the test solution is filled in 25 mL glass test tubes and homogeneously distributed on the inner walls by rotation and tilting on a shaking device (2 h at 30 rpm). With a compound concentration of 900 ppm, an inner surface of 44.7 cm^2 and a homogeneous distribution, a dose of 5 μg/cm^2 is achieved.
After the solvent has evaporated, each test tube is filled with 5-10 adult cat fleas (Ctenocephalides felis), closed with a perforated lid and incubated in a lying position at room temperature and relative humidity. After 48 hours efficacy is determined. The fleas are patted on the ground of the tubes and are incubated on a heating plate at 45-50° C. for at most 5 minutes. Immotile or uncoordinated moving fleas, which are not able to escape the heat by climbing upwards, are marked as dead or moribund.
An efficacy of 100% means all fleas are dead or moribund; 0% means no fleas are dead or moribund.

[8] = system: adult brown dog ticks (Rhipicephalus sanguineus); assay: Rhipicephalus sanguineus in-vitro contact test with adult brown dog ticks; conditions: after 48 hours, read-out: efficacy (ticks dead or moribund); for pest or weed control at 1 µg/cm2, 100 g/ha: 1 μg/cm^2 (=100 g/ha); for pest or weed control at 5 µg/cm2, 500 g/ha: 5 μg/cm^2 (=500 g/ha)
Summary of the method: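 Compound in acetone coated onto glass tube inner walls at 900 ppm, giving 5 μg/cm^2. Adult ticks (5-10 per tube) held at room temperature for 48 h, then placed on a 45-50° C. heating plate for up to 5 min. Ticks unable to climb away counted dead or moribund; efficacy given as % dead/moribund.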

[9] = system: adult engorged female ticks (Rhipicephalus microplus); assay: Rhipicephalus (Boophilus) microplus injection test; conditions: 168 h, egg deposition after 7 days, read-out: efficacy (infertile eggs)
Summary of the method: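 Compound was dissolved in DMSO at 10 mg per 0.5 mL and diluted with DMSO to the test concentration. Five engorged adult females received a 1 μL abdominal injection and were kept in a climate chamber. After 7 days, fertile egg deposition was scored, with unclear eggs held until hatching at about 42 days; 100% efficacy means all eggs were infertile.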

[10] = system: adult unfed cat fleas (Ctenocephalides felis); assay: Ctenocephalides felis oral test; conditions: 48 h, 100 ppm in cattle blood, after 2 days
Summary of the method: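 About 20 adult unfed Ctenocephalides felis fed through parafilm on cattle blood dosed with compound (DMSO stock diluted in blood), blood chamber at 37°C, fleas at room temperature. Mortality (%) scored after 2 days; 100% means all fleas killed.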

[11] = system: green peach aphid (Myzus persicae); assay: Myzus persicae oral test; conditions: 120 h
Summary of the method: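 Compound was dissolved at 1 part by weight in 100 parts acetone, then diluted with water to test concentration and combined with IPL41 insect medium (33%+15% sugar). A mixed aphid population fed on this through a parafilm seal, and mortality (%) was scored after 5 days.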

SMILES	pest or weed control at 32 µg/disc, 100 g/ha [1]	mortality at 100 g/ha [2]	mortality at 500 g/ha [3]	mortality at 500 g/ha [4]	mortality at 100 g/ha [5]	pest or weed control at 5 µg/cm2 [6]	pest or weed control at 5 µg/cm2 [7]	further results
CNc1nc([C@H](C)NC(=O)c2cc(Cl)cc(S(=O)(=O)C(F)F)c2)n(-c2ncccn2)n1 [I-202]	100%	90%	100%	100%	100%	–	–	–
C[C@H](NC(=O)c1cc(OC(F)(F)F)cc(C2CC2)c1)c1nc(N)nn1-c1ncccn1 [I-216]	–	90%	–	–	100%	–	–	–
CON(C)c1nc([C@H](C)NC(=O)c2cc(C(F)(F)F)cc(S(C)(=O)=O)c2)n(-c2ncccn2)n1 [I-153]	–	90%	100%	100%	–	–	–	–
C[C@H](NC(=O)c1cc(Cl)cc(S(C)(=O)=O)c1)c1nc(N(C)C)nn1-c1ncc(Cl)cn1 [I-179]	100%	90%	100%	100%	100%	–	–	–
CNc1nc([C@H](C)NC(=O)c2cc(Br)cc(Br)c2)n(-c2ncccn2)n1 [I-131]	100%	–	100%	90%	100%	100%	100%	pest or weed control at 1 µg/cm2, 100 g/ha [8]: 100%; pest or weed control at 5 µg/cm2, 500 g/ha [8]: 100%
CC(NC(=O)c1cc(C(F)(F)F)cc(C(F)(F)F)c1)c1nc(N(C)C)nn1-c1ncc(Cl)cn1 (stereo not drawn) [I-165]	100%	90%	100%	100%	100%	–	–	–
CNc1nc(C(C)NC(=O)c2cc(Cl)cc(Br)c2)n(-c2ncccn2)n1 (stereo not drawn) [I-121]	100%	–	–	90%	100%	100%	100%	pest or weed control at 0.004 mg ([9]; 4 μg/animal): 100%; pest or weed control at 0.02 mg ([9]; 20 μg/animal): 100%; mortality at 100 ppm [10]: 100%
CNc1nc([C@H](C)NC(=O)c2cc(OC(F)(F)F)cc(S(=O)(=O)C3CC3)c2)n(-c2ncccn2)n1 [I-184]	100%	90%	100%	100%	–	–	–	–
C[C@H](NC(=O)c1cc(OC(F)(F)F)cc(S(=O)(=O)C2CC2)c1)c1nc(N)nn1-c1ccc(C#N)cn1 [I-205]	–	90%	–	–	100%	–	–	–
CNc1nc([C@H](C)NC(=O)c2cc(Cl)cc(C(C)(C)C#N)c2)n(-c2ncccn2)n1 [I-137]	100%	–	100%	90%	100%	80%	90%	–
CON(C)c1nc([C@H](C)NC(=O)c2cc(Cl)cc(C(C)(C)C#N)c2)n(-c2ncccn2)n1 [I-163]	100%	100%	100%	100%	100%	–	–	–
CC(NC(=O)c1cc(Cl)cc(S(C)(=O)=O)c1)c1nc([S+](C)[O-])nn1-c1ccc(Cl)cn1 (racemic) [I-061, 3-chloro-N-[1-[2-(5-chloro-2-pyridyl)-5-methylsulfinyl-1,2,4-triazol-3-yl]ethyl]-5-methylsulfonyl-benzamide]	–	–	100%	–	–	–	–	pest or weed control at 160 µg/disc, 500 g/ha ([1]; 500 g/ha (=160 μg/well)): 100%; mortality at 4 ppm [11]: 100%; mortality at 500 g/ha ([2]; 500 g/ha): 90%; mortality at 100 g/ha [3]: 100%
CC(NC(=O)c1cc(OC(F)(F)F)cc(S(C)(=O)=O)c1)c1nc(N(C)C)nn1-c1ncc(Cl)cn1 (stereo not drawn) [I-192]	100%	90%	100%	100%	100%	–	–	–
C[C@H](NC(=O)c1cc(C(F)(F)F)cc(C(F)(F)F)c1)c1nc(N(C)C(=O)OC(C)(C)C)nn1-c1ncccn1 [I-133, tert-butyl N-[5-[(1S)-1-[[3,5-bis(trifluoromethyl)benzoyl]amino]ethyl]-1-pyrimidin-2-yl-1,2,4-triazol-3-yl]-N-methyl-carbamate]	100%	–	100%	100%	100%	100%	100%	–
C[C@H](NC(=O)c1cc(C(F)(F)F)cc(C(F)(F)F)c1)c1nc(N(C)C)nn1-c1ncccn1 [I-141, N-[(1S)-1-[5-(dimethylamino)-2-pyrimidin-2-yl-1,2,4-triazol-3-yl]ethyl]-3,5-bis(trifluoromethyl)benzamide]	100%	–	100%	100%	100%	100%	100%	pest or weed control at 1 µg/cm2, 100 g/ha [8]: 80%; pest or weed control at 5 µg/cm2, 500 g/ha [8]: 100%
C[C@H](NC(=O)c1cc(OC(F)(F)F)cc(S(=O)(=O)C2CC2)c1)c1nc(N)nn1-c1ncccn1 [I-187]	100%	90%	100%	100%	–	–	–	–
